The subject of data set [1] is influx of neutrophils to the lung in LPS-challenged rats. Nature of the data set: Rat LPS neutrophilia model. In kind it is in vivo. As to conditions: intratracheal, LPS aerosol 100 ug/ml 15 min, lavage 4 hours later, in at least one of the range of conditions tested, significant p<0.05, nonsignificant p>0.05. In short, it runs like this:
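Compound was given intratracheally (200 ul, suspension or dry powder) 15 min–24 hours before a 15 min aerosol of LPS (100 ug/ml). Bronchoalveolar lavage was taken 4 hours after challenge for differential cell counts. Values are % inhibition of neutrophils versus no-compound controls at a given concentration and pretreat time.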

For data set [2], the system named is TGF-β-induced increases in fibronectin and thrombospondin. The note with it: cited from earlier work.
Data set [3] deals with T1, Recombinant human p38α (MKK6-activated) (Homo sapiens, UniProt Q16539).
T1 construct: His; made in house
T1 sequence (Q16539 whole entry): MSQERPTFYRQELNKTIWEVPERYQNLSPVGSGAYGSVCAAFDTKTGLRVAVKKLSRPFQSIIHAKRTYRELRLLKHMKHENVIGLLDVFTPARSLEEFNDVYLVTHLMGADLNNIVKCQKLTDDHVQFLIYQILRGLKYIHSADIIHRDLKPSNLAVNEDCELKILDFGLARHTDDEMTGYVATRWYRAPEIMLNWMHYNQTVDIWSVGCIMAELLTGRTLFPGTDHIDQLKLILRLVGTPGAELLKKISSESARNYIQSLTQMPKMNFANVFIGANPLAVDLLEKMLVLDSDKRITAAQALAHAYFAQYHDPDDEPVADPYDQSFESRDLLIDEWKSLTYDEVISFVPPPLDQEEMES
Description: Time-resolved fluorescence resonance energy transfer (TR-FRET) kinase assay (standard or low volume). In kind it is biochemical. Further details: key: Compounds are considered active in this assay if they demonstrate a pIC50 of greater than 4.6 up to about a pIC50 of greater than 10.0. As to conditions: MKK6-activated p38α 100 pM, GST-ATF2 400 nM, 120 minutes at room temperature; either assay format. As to the method:
It is noted that there are two assay formats shown above for the Fluorescence anisotropy kinase binding assay. The only difference between these two assays is the volume used and the plate type. […] The results described herein may have been performed in either assay format and are not differentiated as to which. […] TR-FRET Assay Time-Resolved Fluorescence Resonance Energy Transfer Kinase Standard Assay Recombinant human p38α was expressed as a His-tagged protein. To activate this protein, 3 μM unactivated p38α was incubated in 200 mM Hepes pH 7.4, 625 mM NaCl, 1 mM DTT with 27 nM active MKK6 (Upstate), 1 mM ATP and 10 mM MgCl2 The activity of the MKK6-activated p38α was assessed using a time-resolved fluorescence resonance energy transfer (TR-FRET) assay. Biotinylated-GST-ATF2 (residues 19-96, 400 nM final), ATP ([…]) and MgCl2 (5 mM final) in assay buffer (40 mM HEPES pH 7.4, 1 mM DTT) were added to wells containing 1 ul of various concentrations of compound or DMSO vehicle (3% final) in NUNC 384 well black plate. The reaction was initiated by the addition of MKK6-activated p38 (100 pM final) to give a total volume of 30 ul. The reaction was incubated for 120 minutes at room temperature, then terminated by the addition of 15 μl of 100 mM EDTA pH 7.4. Detection reagent (15 μl) in buffer (100 mM HEPES pH 7.4, 150 mM NaCl, 0.1% w/v BSA, 1 mM DTT) containing antiphosphothreonine-ATF2-71 polyclonal antibody (Cell Signalling Technology, Beverly Mass., USA) labelled with W-1024 europium chelate (Wallac OY, Turku, Finland), and APC-labelled streptavidin (Prozyme, San Leandro, Calif., USA) was added and the reaction was further incubated for 60 minutes at room temperature. The degree of phosphorylation of GST-ATF2 was measured using a Packard Discovery plate reader (Perkin-Elmer Life Sciences, Pangbourne, UK) as a ratio of specific 665 nm energy transfer signal to reference europium 620 nm signal. Time-Resolved Fluorescence Resonance Energy Transfer Kinase Low Volume Assay Recombinant human p38α was expressed as a His-tagged protein. To activate this protein, 3 μM unactivated p38α was incubated in 200 mM Hepes pH7.4, 625 mM NaCl, 1 mM DTT with 27 nM active MKK6 (Upstate), 1 mM ATP and 10 mM MgCl2 The activity of the MKK6-activated p38α was assessed using a time-resolved fluorescence resonance energy transfer (TR-FRET) assay. Biotinylated-GST-ATF2 (residues 19-96, 400 nM final), ATP (125 μM final) and MgCl2 ([…]) in assay buffer (40 mM HEPES pH 7.4, 1 mM DTT) were added to wells containing 0.1 μl of various concentrations of compound or DMSO vehicle (1.7% final) in Greiner low volume 384 well black plate. The reaction was initiated by the addition of MKK6-activated p38α (100 pM final) to give a total volume of 6 μl. The reaction was incubated for 120 minutes at room temperature, then terminated by the addition of 3 μl of detection reagent in buffer (100 mM HEPES pH 7.4, 150 mM NaCl, 0.1% w/v BSA, 1 mM DTT, 100 mM EDTA) containing antiphosphothreonine-ATF2-71 polyclonal antibody (Cell Signalling Technology, Beverly Mass., USA) labelled with W-1024 europium chelate (Wallac OY, Turku, Finland), and APC-labelled streptavidin (Prozyme, San Leandro, Calif., USA). The reaction was further incubated for 60 minutes at room temperature. The degree of phosphorylation of GST-ATF2 was measured using a BMG Rubystar plate reader (BMG, UK) as a ratio of specific 665 nm energy transfer signal to reference europium 620 nm signal. It is noted that there are two assay formats shown above for the Time-resolved fluorescence resonance energy transfer kinase assay. The only difference between these two assays is the volume used and the plate type. […] The results described herein may have been performed in either assay format and are not differentiated as to which. […] For purposes herein the HTRF assay and the Fluorescence anisotropy kinase binding assay: […]

Data set [4] concerns synthesis of IL-6, IL-8, GM-CSF, RANTES and COX-2. The note with it: a number of different cell types; cited from earlier work.

Molecule `CCCNCCNc1nc(-c2cc(C(=O)NC3CC3)ccc2C)c2ccc(=O)n(-c3c(F)cccc3F)c2n1` [Example 24, N-cyclopropyl-3-(8-(2,6-difluorophenyl)-7-oxo-2-{[2-(propylamino)ethyl]amino}-7,8-dihydropyrido[2,3-d]pyrimidin-4-yl)-4-methylbenzamide] registered a melting point of 120 to 134 °C. Also, the “inhibition of neutrophilia (neutrophil levels in lung lavage relative to no compound controls)” value in data set [1] is recorded as “statistically nonsignificant inhibition”.

Turning to `COc1nccc(-c2c(-c3ccc(F)cc3)ncn2C2CCNCC2)n1` [SB-242235], the “effect on TGF-β-induced increases in fibronectin and thrombospondin” value in data set [2] is given as “inhibited”.

As for `Cc1c(F)cc(C(=O)NC2CC2)cc1-c1nc(NC(CO)CO)nc2c1ccc(=O)n2-c1c(F)cccc1F` [18(e)], the melting point was 214.2 to 217.5 °C. For the same molecule, the “pIC50, reported as active” value in data set [3] is on record as “active”.

`CCCNC(=O)c1ccc(C)c(-c2nc(N(C)CCCN(C)C)nc3c2ccc(=O)n3-c2c(F)cccc2F)c1` [Example 104, 3-{8-(2,6-difluorophenyl)-2-[[3-(dimethylamino)propyl](methyl)amino]-7-oxo-7,8-dihydropyrido[2,3-d]pyrimidin-4-yl}-4-methyl-N-propylbenzamide]: the melting point was in the range of 104 to 109 °C. Further, the “inhibition of neutrophilia (neutrophil levels in lung lavage relative to no compound controls)” value in data set [1] is recorded as “statistically significant inhibition”.

Turning to `Cc1ccc(C(=O)NC2CC2)cc1-c1nc(NCCN(C)C)nc2c1ccc(=O)n2-c1c(F)cccc1F` [Example 25], the melting point is 214.7 to 217.5 °C. Moreover, the “inhibition of neutrophilia (neutrophil levels in lung lavage relative to no compound controls)” value in data set [1] was “statistically nonsignificant inhibition”.

Consider `Fc1ccc(-c2nc3n(c2-c2ccncc2)CCS3)cc1` [SK&F 86002], for which, in data set [4], the “decreasing the synthesis of pro-inflammatory proteins including IL-6, IL-8, GM-CSF, RANTES and COX-2” value is on record as “effective”.

`C[S+]([O-])c1ccc(-c2nc(-c3ccncc3)c(-c3ccc(F)cc3)[nH]2)cc1` (stereo not shown) [SB-203580]: the “decreasing the synthesis of pro-inflammatory proteins including IL-6, IL-8, GM-CSF, RANTES and COX-2” value in data set [4] was “effective”.

`CCCNC(=O)c1ccc(C)c(-c2nc(NCCN(C)C)nc3c2ccc(=O)n3-c2c(F)cccc2F)c1` [Example 105, 3-(8-(2,6-difluorophenyl)-2-{[2-(dimethylamino)ethyl]amino}-7-oxo-7,8-dihydropyrido[2,3-d]pyrimidin-4-yl)-4-methyl-N-propylbenzamide] showed a melting point of 139 to 142 °C. The “inhibition of neutrophilia (neutrophil levels in lung lavage relative to no compound controls)” value in data set [1] is “statistically significant inhibition”.

Values taken from US8207176B2 (Glaxo Group Limited, priority 2005, dated 2012).
